Data reported in patent US4424211A, “2'Deoxy-5-(2-halogenovinyl)-uridines, pharmaceutical compositions and method of use” (Rega Instituut VZW, priority 1981, dated 1984).
≈ marks a conversion by molar mass, not a printed value. Entries after “also recorded” stand apart in the source; their conditions may differ. Read-outs that look alike come from different tables or passages of the source.

Columns and labels:
[1] = Antimetabolic activity: inhibition of (2-^14 C)UdR incorporation into DNA of PRK cells (Test 3a); type: cell-based; details: rabbit
Description: (§1) (a) In a first experiment, the incorporation of certain radiolabelled DNA precursors into DNA of the cells, and the effect of 5-(2-bromovinyl)-2'-deoxyuridine and related compounds thereon, was tested. The technique has been described by De Clercq et al in Biochemical Pharmacology, 26, 794-797 (1977) and by De Clercq et al in Molecular Pharmacology, in press, 1978, which are incorporated herein by way of reference.
(§2) The DNA precursors as used were (methyl-^3 H) (2'-deoxythymidine) (TdR), and (2-^14 C) (2'-deoxyuridine) (UdR).
(§3) Incorporation of the radiolabelled precursor was then measured as described and the ID50 was determined.

vaccinia virus = assay: microbe, parasite or virus in culture; type: cell-based; details: Orthopoxvirus vaccinia, 72 h
herpes simplex-1 = assay: Antiviral index in PRK cell cultures: antimetabolic ID50 divided by antiviral ID50 (Test 4); type: cell-based, herpes simplex-1 virus; details: for Antiviral index: PRK cells, ID50 cell number / ID50 CPE of herpes simplex-1; for antiviral index (in words): against herpes simplex virus
Description: Finally, the antiviral index of 5-(2-bromovinyl)-2'-deoxyuridine and its related compounds in PRK cell cultures was determined as a result of the measurements made in the foregoing tests.
The antiviral index was calculated by dividing the "antimetabolic" ID50 by the "antiviral" ID50. The "antimetabolic" ID50 corresponded to the dose required to reduce the cell number by 50% whereas the "antiviral" ID50 corresponded to the dose required to inhibit the cytopathic effect of herpes simplex-1 by 50%.

[2] = Antimetabolic activity: reduction of total cell number of PRK cells (Test 3b); details: rabbit
[3] = Antimetabolic activity: inhibition of (methyl-^3 H)TdR incorporation into DNA of PRK cells (Test 3a); type: cell-based; details: rabbit
Description: as §1, §2, §3

[4] = test system: herpes simplex-1 (strain KOS) virus; assay: microbe, parasite or virus in culture; type: cell-based, herpes simplex-1 virus (strain KOS); details: for IC50: 72 h, 100 CCID50, CPE, generally 3 days, average of three experiments; for selectivity of antiviral activity (in words): herpes simplex virus
[5] = state of the art; cited from earlier work
[6] = test system: DNA viruses such as vaccinia and herpes simplex; details: state of the art; cited from earlier work
in vitro = details: rabbit, prk cells
cell culture [7] = assay: Toxicity in cell culture (summary statement)
cell culture [8] = test system: cell culture
[9] = PRK cells, 16 hours, read-out: ID50 (2-^14)UdR incorpor. into DNA
[10] = HSF, read-out: ID50 Vaccinia (HSF)
[11] = PRK, in Oryctolagus cuniculus, read-out: ID50 Vaccinia (PRK)
[12] = PRK cells, 16 hours, read-out: ID50 (methyl-^3 H)TdR incorporation into DNA
[13] = human skin fibroblast (HSF) cells, read-out: ID50 Herpes simplex-1 strain KOS (HSF)
[14] = primary rabbit kidney (PRK) cells, read-out: ID50 Herpes simplex-1 strain KOS (PRK)

SMILES	IC50 at 16 h [1, 9] [µg/mL]	IC50 (vaccinia virus; [10]) [µg/mL]	IC50 (vaccinia virus; [11]) [µg/mL]	Antiviral index (herpes simplex-1)	CC50 at 72 h [2] [µg/mL]	IC50 at 16 h [3, 12] [µg/mL]	IC50 [4, 13] [µg/mL]	IC50 [4, 14] [µg/mL]	IC50 at 16 h ([1]; prk cells) [µg/mL]	toxicity of known compounds (in words) [5]	antiviral activity/specificity of known compounds (in words) [6]	IC50 at 16 h ([3]; prk cells) [µg/mL]	CC50 at 72 h (in vitro) [µg/mL]	toxicity (in words) (cell culture [7])	antiviral index (in words) (herpes simplex-1)	selectivity of antiviral activity (in words) [4]	toxicity (in words) (cell culture [8])
C#Cc1cn([C@H]2C[C@H](O)[C@@H](CO)O2)c(=O)[nH]c1=O [2'-deoxy-5-ethynyluridine]	< 6	0.1 (≈ 0.396 µM)	0.2 (≈ 0.793 µM)	5	0.3 (≈ 1.19 µM)	100 (≈ 396 µM)	0.4 (≈ 1.59 µM)	0.07 (≈ 0.278 µM)									
O=c1[nH]c(=O)n([C@H]2C[C@H](O)[C@@H](CO)O2)cc1I [2'-deoxy-5-iodouridine]		0.2 (≈ 0.565 µM)	0.2 (≈ 0.565 µM)	30			0.7 (≈ 1.98 µM)	0.2 (≈ 0.565 µM)	1.2 (≈ 3.39 µM)	cannot be neglected	act equally well against different DNA viruses such as vaccinia and herpes simplex	2.5 (≈ 7.06 µM)	6 (≈ 16.9 µM)				
C=Cc1cn([C@H]2C[C@H](O)[C@@H](CO)O2)c(=O)[nH]c1=O [2'-deoxy-5-vinyluridine]		0.1 (≈ 0.393 µM)	0.4 (≈ 1.57 µM)	200			0.07 (≈ 0.275 µM)	0.04 (≈ 0.157 µM)	8 (≈ 31.5 µM)	cannot be neglected	act equally well against different DNA viruses such as vaccinia and herpes simplex	20 (≈ 78.7 µM)	8 (≈ 31.5 µM)				
C=C(Cl)c1cn([C@H]2C[C@H](O)[C@@H](CO)O2)c(=O)[nH]c1=O [5-(1-chlorovinyl)-2'-deoxyuridine]		0.7 (≈ 2.42 µM)	0.4 (≈ 1.39 µM)	5			2 (≈ 6.93 µM)	0.4 (≈ 1.39 µM)	< 6			27 (≈ 93.5 µM)	2 (≈ 6.93 µM)				
O=c1[nH]c(=O)n([C@H]2C[C@H](O)[C@@H](CO)O2)cc1/C=C/Br [E-5-(2-bromovinyl)-2'-deoxyuridine]	35 (≈ 105 µM)	0.7 (≈ 2.1 µM)	7 (≈ 21 µM)	> 5000	> 33	70 (≈ 210 µM)	0.007 (≈ 0.021 µM)	0.007 (≈ 0.021 µM)						remarkably low	remarkably high antiviral index	specific antiviral activity; also recorded: very selective towards herpes simplex virus	
O=c1[nH]c(=O)n([C@H]2C[C@H](O)[C@@H](CO)O2)cc1/C=C/I [E-5-(2-iodovinyl)-2'-deoxyuridine]			10 (≈ 26.3 µM)					0.01 (≈ 0.0263 µM)							high antiviral index	specific antiviral activity; also recorded: very selective towards herpes simplex virus	remarkably low
